Columns and labels:
bovine β-lactoglobulin = biological target: T1, bovine β-lactoglobulin (Bos taurus, UniProt P02754); test: Partitioning of bovine β-lactoglobulin with binding partners in aqueous two-phase systems; conditions: for Partition coefficient K-value, Dex-Ficoll system: 8.88 wt.% Dextran-64, 12.86 wt.% Ficoll-400, 0.01 M sodium phosphate buffer pH 8.6; for Partition coefficient K-value, Dex-Ficoll system / Partition coefficient K-value, Dex-Ficoll-NaSCN system / Partition coefficient K-value, Dex-PEG system: protein:binding partner 1:1; for Partition coefficient K-value, Dex-Ficoll-NaSCN system: 10.98 wt.% Dextran-64, 15.95 wt.% Ficoll-400, […] NaSCN, 0.01 M sodium phosphate buffer pH 8.6; for Partition coefficient K-value, Dex-PEG system: 12.33 wt.% Dextran-64, 6.05 wt.% PEG-6000, 0.15M NaCl, 0.01 M sodium phosphate buffer pH 7.4; for Partition coefficient K-value, PEG/Phosphate system: 13.75 wt.% PEG-600, 21.00 wt.% sodium/potassium phosphate buffer pH 6.8, protein:binding partner molecular ratio 1:1; for effect of binding on the protein K-value: all the systems used
T1 sequence (P02754 17-178): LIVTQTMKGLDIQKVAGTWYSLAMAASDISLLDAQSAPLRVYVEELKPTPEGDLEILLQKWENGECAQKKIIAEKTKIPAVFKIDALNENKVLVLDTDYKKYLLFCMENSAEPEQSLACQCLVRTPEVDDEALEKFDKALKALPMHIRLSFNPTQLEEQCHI
Method: β-Lactoglobulin from bovine milk, retinol, nitrophenyl phosphate and bromoethanol were purchased from Sigma Chemical Company (St. Louis, Mo., USA) and used without further purification. A stock solution of β-lactoglobulin in water was prepared at a concentration of 10.0 mg/ml. Nitrophenyl phosphate, retinol, and bromoethanol were dissolved in the protein stock solutions in the molecular ratios as indicated in Table 1. These protein/binding partner solutions were subjected to partitioning in a series of different aqueous two-phase systems, also as indicated below.
The aqueous two-phase system contained 13.75 wt. % PEG-600 (molecular weight of about 600) and 21.00 wt. % sodium/potassium phosphate buffer (pH 6.8). Each system was prepared by mixing the appropriate amounts of stock polymer and buffer solutions dispensed by liquid handling workstation Hamilton ML-2200 into a 1.2 mL microtube. A total volume of 800 μL was dispensed to the microtube. A varied amount (40, 80, 120, 160, and 200 μL) of the β-lactoglobulin solution or that of a mixture of a given ratio and the corresponding amount (160, 120, 80, 40, and 0.0 μl) of water were added to a system. The ratio between the volumes of the two phases of each system of a final volume of 1.00 mL was as 1:1. The system was shaken vigorously and then centrifuged for 30 min. at about 4000 rpm to speed resolution of the two phases. Tubes were then taken from the centrifuge, aliquots of a given volume (100 μl for direct spectrophotometric analysis and 150 μl for fluorescence analysis) from the top and the bottom phases were withdrawn in duplicate. Each aliquot was diluted, mixed with appropriate reagents, and used for analyzed as described below.
The other aqueous two-phase system contained 8.88 wt. % Dextran-64 (molecular weight of about 64,000), 12.86 wt. % Ficoll-400 (molecular weight of about 400,000) and 0.01 M sodium phosphate buffer (pH 8.6). Each system was prepared by mixing the appropriate amounts of stock polymer and buffer solutions dispensed by liquid handling workstation Hamilton ML-2200 into a microtube of a total volume of 1.2 mL up to a total volume of a system of 820 μL. A varied amount (40, 80, 120, and 160 μl) of the β-lactoglobulin solution or that of a mixture of a given ratio and the corresponding amount (140, 100, 60, and 20 μl) of water were added to each system. The ratio between the volumes of the two phases of each system of a final volume of 1.00 mL was as 1:1. The system was shaken vigorously and centrifuged for 30 min. at about 4000 rpm to speed the resolution of the phases. Tubes were taken out of the centrifuge, and aliquots of a given volume (100 μl for direct spectrophotometric analysis and 150 μl for fluorescence analysis) from the top and the bottom phases were withdrawn in duplicate and each diluted and mixed with appropriate reagents as indicated below and used for further analysis performed as described below.
The other aqueous two-phase system contained 10.98 wt. % Dextran-64 (molecular weight of about 64,000), 15.95 wt. % Ficoll-400 (molecular weight of about 400,000), 0.24M NaSCN, and 0.01 M sodium phosphate buffer (pH 8.6). Each system was prepared by mixing the appropriate amounts of stock polymer, salt, and buffer solutions dispensed by liquid handling workstation Hamilton ML-2200 into a microtube of a total volume of 1.2 mL up to a total volume of a system of 920 μL. A varied amount (20, 40, 60, and 80 μl) of the β-lactoglobulin solution or that of a mixture of a given ratio and the corresponding amount (60, 40, 20, and 0 μl) of water were added to a system. The ratio between the volumes of the two phases of each system of a final volume of 1.00 mL was as 1:1. The system was vigorously shaken and centrifuged for 30 min. at about 4000 rpm in a centrifuge with a bucket rotor to speed the phase settling.

hen egg white lysozyme = biological target: T2, hen egg white lysozyme (Gallus gallus, UniProt P00698); test: Partitioning of hen egg white lysozyme and its mixtures with binding partners in aqueous two-phase systems; format: physicochemical; conditions: for Partition coefficient K-value, Dex-PEG system: pH 7.4; for Partition coefficient K-value, Dex-Ficoll system / Partition coefficient K-value, Dex-Ficoll-Na2SO4 system: pH 8.6
T2 construct: Lysozyme from hen egg white; purchased Sigma Chemical Company (St. Louis, Mo., USA); host or cells: isolated from hen egg white
T2 sequence (P00698 19-147): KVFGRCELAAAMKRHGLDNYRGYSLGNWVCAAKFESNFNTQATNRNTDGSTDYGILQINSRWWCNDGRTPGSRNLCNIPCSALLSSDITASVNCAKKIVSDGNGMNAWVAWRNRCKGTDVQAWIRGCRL
Method: Glucose and N-acetyl-D-glucosamine were purchased from USB Corporation (Cleveland, Ohio, USA) and used without further purification. Stock solutions of lysozyme in water were prepared at a concentration of 5.0 mg/ml. N,N′-Diacetylchitobiose and N,N′,N″-triacetylchitotriose were dissolved at a concentration of 10 mg/ml and mixed with the protein solution in ratios appropriate to provide protein:ligand molecular ratios of 1:1. Stock solutions of lysozyme and of the lysozyme mixtures with ligands were added to an aqueous two-phase system as described below.

[1] = Partitioning of human, bovine and porcine insulin in aqueous two-phase systems; format: physicochemical; conditions: pH 7.4
Method: Human recombinant insulin was purchased from ICN Biomedicals Inc. (Aurora, Ohio, USA), bovine and porcine insulins were purchased from Calbiochem Corporation (San Diego, Calif., USA) and used without further purification. […] Stock solutions of all insulins in 0.009M HCl were prepared and titrated with 0.01M NaOH to pH 6.0 with the final protein concentration of ca. 1.0 mg/ml. Stock solution of human insulin, stock solution of porcine insulin, and stock solution of bovine insulin were added to an aqueous two-phase system as described below.

## OCCBr
Bovine β-lactoglobulin
  Partition coefficient K-value, Dex-Ficoll system: 0.848 ± 0.009
  Partition coefficient K-value, Dex-Ficoll-NaSCN system: 0.486 ± 0.005
  Partition coefficient K-value, Dex-PEG system: 0.183 ± 0.001
  Partition coefficient K-value, PEG/Phosphate system: 1.904 ± 0.013
  effect of binding on the protein K-value: decreases

## O=[N+]([O-])c1ccc(OP(=O)(O)O)cc1
Bovine β-lactoglobulin
  Partition coefficient K-value, Dex-Ficoll system: 0.823 ± 0.018
  Partition coefficient K-value, Dex-Ficoll-NaSCN system: 0.420 ± 0.001
  Partition coefficient K-value, Dex-PEG system: 0.103 ± 0.001
  Partition coefficient K-value, PEG/Phosphate system: 1.714 ± 0.012
  effect of binding on the protein K-value: decreases

## CC(=O)N[C@H]1[C@H](O[C@H]2[C@H](O)[C@@H](NC(C)=O)C(O)O[C@@H]2CO)O[C@H](CO)[C@@H](O[C@@H]2O[C@H](CO)[C@@H](O)[C@H](O)[C@H]2NC(C)=O)[C@@H]1O (stereo partly drawn) [N,N′,N″-Triacetylchitotriose]
Hen egg white lysozyme
  Partition coefficient K-value, PEG-3350-Phosphate system: 0.461 ± 0.006
  Partition coefficient K-value, Dex-PEG system: 2.033 ± 0.052
  Partition coefficient K-value, Dex-Ficoll system: 0.803 ± 0.004
  Partition coefficient K-value, Dex-Ficoll-Na2SO4 system: 1.106 ± 0.007

## CC(=O)N[C@H]1[C@H](O[C@H]2[C@H](O)[C@@H](NC(C)=O)C(O)O[C@@H]2CO)O[C@H](CO)[C@@H](O)[C@@H]1O (stereo partly drawn) [N,N′-Diacetylchitobiose]
Hen egg white lysozyme
  Partition coefficient K-value, PEG-3350-Phosphate system: 1.311 ± 0.013
  Partition coefficient K-value, Dex-PEG system: 2.563 ± 0.032
  Partition coefficient K-value, Dex-Ficoll system: 0.826 ± 0.001
  Partition coefficient K-value, Dex-Ficoll-Na2SO4 system: 1.177 ± 0.009

## CC(=O)N[C@H]1C(O)O[C@H](CO)[C@@H](O)[C@@H]1O (stereo partly drawn) [N-Acetyl-D-glucosamine]
Hen egg white lysozyme
  Partition coefficient K-value, PEG-3350-Phosphate system: 2.402 ± 0.002
  Partition coefficient K-value, Dex-PEG system: 2.860 ± 0.035
  Partition coefficient K-value, Dex-Ficoll system: 0.818 ± 0.003
  Partition coefficient K-value, Dex-Ficoll-Na2SO4 system: 1.214 ± 0.010

## Porcine Insulin: porcine insulin (Calbiochem); differs from human insulin by Ala in position B30
[1]
  Partition coefficient K-value, Dex-Ficoll-NaCl—NaPB: 1.350 ± 0.015
  Partition coefficient K-value, Dex-Ficoll-NaSCN—NaPB: 0.911 ± 0.006
  Partition coefficient K-value, Dex-PEG-NaClO4—NaPB: 0.656 ± 0.020
  Partition coefficient K-value, Dex-PEG-NaSCN—NaPB: 1.514 ± 0.019

## Retinol acetate
Bovine β-lactoglobulin
  Partition coefficient K-value, Dex-Ficoll system: 0.812 ± 0.006
  Partition coefficient K-value, Dex-Ficoll-NaSCN system: 0.468 ± 0.002
  Partition coefficient K-value, Dex-PEG system: 0.196 ± 0.001
  Partition coefficient K-value, PEG/Phosphate system: 1.858 ± 0.016
Bovine β-lactoglobulin; Dex-Ficoll system
  effect of binding on the K-value of the protein: reduces
Bovine β-lactoglobulin; PEG-Phosphate, Dex-PEG, and Dex-Ficoll-NaSCN systems
  effect of binding on the K value of the protein: increases

## hen egg white lysozyme: Lysozyme from hen egg white (Sigma); protein alone, row 'None' of Table 2
Hen egg white lysozyme
  Partition coefficient K-value, PEG-3350-Phosphate system: 2.278 ± 0.006
  Partition coefficient K-value, Dex-PEG system: 2.728 ± 0.010
  Partition coefficient K-value, Dex-Ficoll system: 0.890 ± 0.007
  Partition coefficient K-value, Dex-Ficoll-Na2SO4 system: 1.239 ± 0.008
